# Measured values reported in the SangsterLogP compilation.
# Assay: method code SF-HPLC, from DOI: 10.1016/s0968-0896(00)00015-8, PMID: 10819159
# Details: pH 7.4
row,logD,Compound
1,1.47,Nc1ccc(S(=O)(=O)N(COC(=O)c2ccccc2)c2cncs2)cc1
2,2.2,CCOC(=O)CN(C)C(=O)OCN(c1ccc([N+](=O)[O-])cc1Oc1ccccc1)S(C)(=O)=O
3,3.59,Cc1cc(C)nc(N(COC(=O)c2ccccc2)S(=O)(=O)c2ccc(N)cc2)n1
4,2.85,COC(=O)C1CCCN1C(=O)OCN(c1ccc([N+](=O)[O-])cc1Oc1ccccc1)S(C)(=O)=O (stereo not given)
5,2.28,CCOC(=O)CNC(=O)OCN(c1ccc([N+](=O)[O-])cc1Oc1ccccc1)S(C)(=O)=O
6,3.97,CS(=O)(=O)N(COC(=O)c1ccccc1)c1ccc([N+](=O)[O-])cc1Oc1ccccc1
7,3.07,Cc1cc(C)nc(N(COC(=O)C(C)(C)C)S(=O)(=O)c2ccc(N)cc2)n1
8,2.15,Nc1ccc(S(=O)(=O)N(COC(=O)c2ccccc2)c2ncccn2)cc1
9,3.96,CC(C)(C)C(=O)OCN(Nc1ccc([N+](=O)[O-])cc1Oc1ccccc1)S(C)(=O)=O
10,2.83,Cc1noc(N(COC(=O)c2ccccc2)S(=O)(=O)c2ccc(N)cc2)c1C
